Converted amounts (≈) assume the structure as drawn.
Key:
Assay type in all cases: functional
Escherichia coli [1] = test: Antibacterial activity against Escherichia coli BL21(DE3)
Escherichia coli [2] = test: Antibacterial activity against Escherichia coli BL21(DE3) expressing Pseudomonas aeruginosa APH(3')-2b
Pseudomonas aeruginosa = test: Antibacterial activity against Pseudomonas aeruginosa ATCC 27853

Structure (SMILES) | MIC (Escherichia coli [1]) [mg/L] | MIC (Escherichia coli [2]) [mg/L] | MIC (Pseudomonas aeruginosa) [mg/L]
NC[C@H]1O[C@H](O[C@H]2[C@H](O)[C@@H](O)[C@H](N)C[C@@H]2N)[C@H](N)[C@@H](O)[C@@H]1O [NEAMINE] | 96 (≈ 298 µM) | 1540 (≈ 4760 µM) | 512 (≈ 1590 µM)
NC[C@@H]1O[C@H](O[C@H]2[C@@H](O)[C@H](O[C@@H]3[C@@H](O)[C@H](N)C[C@H](N)[C@H]3O[C@H]3O[C@H](CN)[C@@H](O)[C@H](O)[C@H]3N)O[C@@H]2CO)[C@H](N)[C@@H](O)[C@@H]1O [FRAMYCETIN] | 12 (≈ 19.5 µM) | 96 (≈ 156 µM) | 128 (≈ 208 µM)
NC[C@H]1O[C@H](O[C@H]2[C@H](O[C@@H]3O[C@H](CO)[C@@H](O)[C@H]3O)[C@@H](O)[C@H](N)C[C@@H]2N)[C@H](N)[C@@H](O)[C@@H]1O [RIBOSTAMYCIN] | 12 (≈ 26.4 µM) | 768 (≈ 1690 µM) | 384 (≈ 845 µM)
NCC[C@H](O)C(=O)N[C@@H]1C[C@H](N)[C@@H](O[C@H]2O[C@H](CN)[C@@H](O)[C@H](O)[C@H]2O)[C@H](O)[C@H]1O[C@H]1O[C@H](CO)[C@@H](O)[C@H](N)[C@H]1O [AMIKACIN] | 12 (≈ 20.5 µM) | 12 (≈ 20.5 µM) | 3 (≈ 5.12 µM)
NC[C@@H]1O[C@@H](O[C@H]2[C@H](O)[C@@H](O[C@H]3O[C@H](CO)[C@@H](O)[C@H](N)[C@H]3O)[C@H](N)C[C@@H]2N)[C@@H](O)[C@H](O)[C@H]1O [KANAMYCIN A] | 12 (≈ 24.8 µM) | 768 (≈ 1590 µM) | 256 (≈ 528 µM)
NC[C@H]1O[C@H](O[C@H]2[C@H](O)[C@@H](O[C@H]3O[C@H](CO)[C@@H](O)[C@H](N)[C@H]3O)[C@H](N)C[C@@H]2N)[C@H](N)C[C@@H]1O [TOBRAMYCIN] | 6 (≈ 12.8 µM) | 6 (≈ 12.8 µM) | 1 (≈ 2.14 µM)
